Drawing on PubChem BioAssay (NCI), this text covers TGI for 7 molecules.

Some test systems named below: 786-0 renal; A498 renal; CCRF-CEM leukemia; DU-145 prostate; HCT-15 colon; HOP-62 NSCLC; HOP-92 NSCLC; HS 578T breast; K-562 leukemia; MOLT-4 leukemia; NCI-H226 lung; PC-3 prostate; RXF 393 renal; SF-268 CNS; SF-539 CNS; SK-OV-3 ovarian; T-47D breast; TK-10 renal; UACC-257 melanoma.
Assay in all cases: DTP human tumour cell line panel, 48 h

Usually TGI stands for the concentration at which net growth stops. High values mean less potent growth arrest, low ones more potent growth arrest.

The structures appear in SMILES notation.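 1) Cells in 96-well plates. 2) Compound, 48 h, 5 concentrations. 3) Linear interpolation between surrounding doses. 4) Unreached endpoint = highest concentration. The concentration for full growth arrest is given as TGI.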 Bounds are passed on as bounds.

As for `CCC12CN(C(=O)OC)C3C(Br)C1CCC(=O)C32` (stereo not drawn), the TGI in the assay with 786-0 renal, in the assay with A498 renal, in the assay on CCRF-CEM leukemia, with DU-145 prostate, in the assay with HCT-15 colon and with HOP-62 NSCLC was over 100 µM in each case. The concentration for total growth inhibition (TGI) in the assay on HOP-92 NSCLC, in the assay on HS 578T breast, in the assay with K-562 leukemia, in the assay on MOLT-4 leukemia, in the assay with NCI-H226 lung and with PC-3 prostate was over 100 µM each time. Moreover, the TGI with RXF 393 renal, with SF-268 CNS, in the assay on SF-539 CNS, in the assay on SK-OV-3 ovarian, in the assay on T-47D breast and in the assay on TK-10 renal was over 100 µM each time. This molecule gave a concentration for total growth inhibition (TGI) in the assay with UACC-257 melanoma of over 100 µM.

Consider `Cc1cc(=O)[nH]c(S(=O)(=O)NC(=O)Nc2cccc(Cl)c2)n1`, for which the total growth inhibition concentration (TGI) in the assay on 786-0 renal, in the assay on A498 renal, with CCRF-CEM leukemia, in the assay on DU-145 prostate, in the assay on HCT-15 colon and with HOP-62 NSCLC was over 100 µM in each case. Also, the concentration for total growth inhibition (TGI) in the assay on HOP-92 NSCLC, in the assay with HS 578T breast, with K-562 leukemia, in the assay on MOLT-4 leukemia, in the assay with NCI-H226 lung and in the assay with PC-3 prostate was over 100 µM in each case. The TGI with RXF 393 renal, in the assay with SF-268 CNS, in the assay with SF-539 CNS, in the assay with SK-OV-3 ovarian, in the assay with T-47D breast and with TK-10 renal was over 100 µM throughout. In addition, in the assay with UACC-257 melanoma, the total growth inhibition concentration (TGI) was over 100 µM.

Consider `CC(O)/C=C/C1OC(=O)CC1Nc1ccc(C=O)cc1` (stereo not drawn), for which the TGI is over 100 µM with 786-0 renal; over 100 µM with A498 renal; over 100 µM in the assay with CCRF-CEM leukemia; over 100 µM with DU-145 prostate; over 100 µM in the assay with HCT-15 colon; 77.4 µM in the assay on HOP-62 NSCLC. For the same molecule, the concentration for total growth inhibition (TGI) in the assay on HOP-92 NSCLC was 66.5 µM; in the assay with HS 578T breast, over 100 µM; with K-562 leukemia it was over 100 µM; in the assay on MOLT-4 leukemia it was 77.5 µM; in the assay with NCI-H226 lung, over 100 µM; in the assay with PC-3 prostate, over 100 µM. Besides, the TGI in the assay on RXF 393 renal, in the assay with SF-268 CNS, in the assay with SF-539 CNS, in the assay with SK-OV-3 ovarian, in the assay on T-47D breast and with TK-10 renal was over 100 µM in each case. In the assay on UACC-257 melanoma, the total growth inhibition concentration (TGI) is over 100 µM.

Turning to `Clc1ccc(C2=Cc3nc2c(-c2ccccc2)c2ccc([nH]2)c(-c2ccccc2)c2nc(c(-c4ccccc4)c4ccc([nH]4)c3-c3ccccc3)C=C2)cc1`, the TGI with 786-0 renal, in the assay on A498 renal, in the assay with CCRF-CEM leukemia, in the assay with DU-145 prostate, in the assay on HCT-15 colon and with HOP-62 NSCLC was over 62.5 µM in each case. Moreover, the total growth inhibition concentration (TGI) with HOP-92 NSCLC, in the assay with HS 578T breast, in the assay with K-562 leukemia, in the assay with MOLT-4 leukemia, in the assay with NCI-H226 lung and with PC-3 prostate was over 62.5 µM each time. In addition, the TGI in the assay with RXF 393 renal, in the assay on SF-268 CNS, in the assay on SF-539 CNS, in the assay on SK-OV-3 ovarian, in the assay on T-47D breast and in the assay on TK-10 renal was over 62.5 µM in each case. This molecule also yielded a TGI in the assay on UACC-257 melanoma of over 62.5 µM.

For the molecule `C/C=C/C(O)P(=O)(OC)OC` (stereo not drawn), the TGI with 786-0 renal is 0.36 µM; in the assay with A498 renal, 0.955 µM; in the assay on CCRF-CEM leukemia, over 100 µM; in the assay with DU-145 prostate, 1.49 µM; in the assay with HCT-15 colon it was 1.06 µM; in the assay on HOP-62 NSCLC, 2.23 µM. In addition, the total growth inhibition concentration (TGI) is 0.27 µM in the assay with HOP-92 NSCLC; 0.915 µM with HS 578T breast; 2.63 µM in the assay with K-562 leukemia; 11.2 µM with MOLT-4 leukemia; 1.39 µM in the assay on NCI-H226 lung; 1.43 µM with PC-3 prostate. In addition, the TGI in the assay on RXF 393 renal stood at 0.543 µM; with SF-268 CNS, 0.914 µM; in the assay on SF-539 CNS, 0.74 µM; with SK-OV-3 ovarian, 2.51 µM; in the assay on T-47D breast, 1.55 µM; in the assay on TK-10 renal, 1.45 µM. Also, the total growth inhibition concentration (TGI) in the assay with UACC-257 melanoma came to 0.792 µM.

Take `COc1ccccc1CC1(O)OC(=O)c2ccccc21` (stereo not drawn): the concentration for total growth inhibition (TGI) in the assay on 786-0 renal, in the assay with A498 renal, in the assay on CCRF-CEM leukemia, in the assay with DU-145 prostate, in the assay on HCT-15 colon and with HOP-62 NSCLC was over 100 µM each time. Besides, the TGI in the assay on HOP-92 NSCLC, in the assay on HS 578T breast, with K-562 leukemia, in the assay on MOLT-4 leukemia, in the assay with NCI-H226 lung and with PC-3 prostate was over 100 µM each time. The TGI in the assay with RXF 393 renal, in the assay with SF-268 CNS, in the assay with SF-539 CNS, in the assay with SK-OV-3 ovarian, in the assay with T-47D breast and in the assay on TK-10 renal was over 100 µM in each case. This molecule came in with a TGI in the assay on UACC-257 melanoma of over 100 µM.

For `COc1c(OC)c(OC)c2c(=O)c(OC)c(-c3ccc4c(c3)OCO4)oc2c1OC`, the TGI with 786-0 renal, in the assay with A498 renal, with CCRF-CEM leukemia, with DU-145 prostate, in the assay with HCT-15 colon and with HOP-62 NSCLC was over 100 µM each time. The concentration for total growth inhibition (TGI) in the assay with HOP-92 NSCLC, in the assay with HS 578T breast, in the assay with K-562 leukemia, in the assay on MOLT-4 leukemia, with NCI-H226 lung and with PC-3 prostate was over 100 µM in each case. Further, the TGI in the assay with RXF 393 renal, in the assay on SF-268 CNS, with SF-539 CNS, in the assay with SK-OV-3 ovarian, in the assay on T-47D breast and in the assay with TK-10 renal was over 100 µM throughout. Further, the TGI in the assay with UACC-257 melanoma was over 100 µM.
